In patent publication US20090124631A1, “Combination Therapy” (priority 2007, published 2009):

Key:
Format in all cases: biochemical
HDAC5 = molecular target: T1, HDAC5 (Homo sapiens, UniProt Q9UQL6); assay: Fluorescence-based HDAC enzyme assay, recombinant HDAC5; conditions: recombinant human HDAC enzyme in vitro; read-out: IC50 (μM) HD5
T1 construct: cDNAs encoding truncated versions of HDAC4, 5 and 7 encompassing their deacetylase domains; hexahistidine (N); made in house; host or cells: Sf-9 insect cells (baculovirus)
Excerpt: (§1) cDNAs of human HDAC1-8 and 11 were generated by RT-PCR reactions using primers complementary to the 5′ and 3′ coding sequence of human HDAC gene sequences in GenBank. cDNAs corresponding to the full length human HDAC1, 2, 3 and 11 were cloned into pBlueBac4.5 vector (Invitrogen). The constructs were used to generate recombinant baculoviruses using the Bac-N-Blue™ DNA according to the manufacturer's instructions (Invitrogen). The recombinant HDAC1, 2, 3, 11 proteins produced harbor a FLAG tag at their C-termini. cDNAs encoding truncated versions of HDAC4, 5 and 7 encompassing their deacetylase domains were cloned into pDEST10 as an N-terminal hexahistidine fusion protein and recombinant baculoviruses were generated using the Bac-to-Bac™ Baculovirus expression system (Invitrogen). HDAC6 and 8 were cloned as full length N-terminally His-tagged protein. All HDAC proteins were expressed in insect Sf-9 cells (Spodoptera frugiperdai) upon infection with recombinant baculovirus. HDAC1 enzyme was purified from the Q-sepharose FF column (Amersham Pharmacia Biotech, Baie d'Urfe QC, Canada) followed by an anti-FLAG immunoaffinity column (Sigma). HDAC2, 3 and 11 were purified using Flag-antibody immunoaffinity purification. HDAC4, 5, 6, 7 and 8 were purified using either Ni-NTA resin (QIAGEN Mississauga ON, Canada) or His-Select resin (Sigma) with step washes and elution with different concentrations of imidazole in Buffer containing 25 mM Tris (or NaPO4) pH 8.0, 10% glycerol and 150 mM or 500 mM NaCl.
(§2) Recombinant HDAC enzymes were incubated with diluted compounds in assay buffer (25 mM Hepes, pH 8.0, 137 mM NaCl, 1 mM MgCl2 and 2.7 mM KCl) for 10 minutes at ambient temperatures in black 96-well plate. Boc-Lys(Ac)-AMC (for HDAC1, 2, 3, 6, and 8 enzymes), which was purchased from Bachem Biosciences Inc., (King of Prussia, Philadelphia) were added into enzyme-compound mixture and incubated at 37° C. For HDAC4, 5, 7 assays, Boc-Lys(TFA)-AMC, which was synthesized in house, was used as substrate and 0.1% BSA was added to the buffer. […] Reaction time was predetermined to ensure that reaction was linear for the incubation time. Reaction was stopped by adding a freshly prepared trypsin (1 mg/ml final concentration) with 1 μM TSA (Biomol) in assay buffer. After 30 minutes, fluorescence was measured using a fluorometer (SPECTRAMAX GeminiXS, Molecular Devices, Sunnylvale, Calif.). The 50% inhibitory concentrations (IC50) for inhibitors were determined by analyzing dose-response inhibition curves.

HDAC4 = molecular target: T2, HDAC4 (Homo sapiens, UniProt P56524); assay: Fluorescence-based HDAC enzyme assay, recombinant HDAC4; conditions: recombinant human HDAC enzyme in vitro; read-out: IC50 (μM) HD4
T2 construct: cDNAs encoding truncated versions of HDAC4, 5 and 7 encompassing their deacetylase domains; hexahistidine (N); made in house; host or cells: Sf-9 insect cells (baculovirus)
Excerpt: as §1, §2

HDAC2 = molecular target: T3, HDAC2 (Homo sapiens, UniProt Q92769); assay: Fluorescence-based HDAC enzyme assay, recombinant HDAC2; conditions: recombinant human HDAC enzyme in vitro; read-out: IC50 (μM) HD2
T3 construct: cDNAs corresponding to the full length human HDAC1, 2, 3 and 11 were cloned into pBlueBac4.5 vector; FLAG (C); made in house; host or cells: Sf-9 insect cells (baculovirus)
Excerpt: as §1, with “HDAC2, 3 and 11 were purified using Flag-antibody immunoaffinity purification.” left out
as §2, with “Boc-Lys(Ac)-AMC” for “Recombinant HDAC enzymes were incubated with diluted compounds in assay buffer (25 mM Hepes, pH 8.0, 137 mM NaCl, 1 mM MgCl2 and 2.7 mM KCl) for 10 minutes at ambient temperatures in black 96-well plate. Boc-Lys(Ac)-AMC”, “Calif.).” for “Calif.). The 50% inhibitory concentrations (IC50) for inhibitors were determined by analyzing dose-response inhibition curves.”

HDAC8 = molecular target: T4, HDAC8 (Homo sapiens, UniProt Q9BY41); assay: Fluorescence-based HDAC enzyme assay, recombinant HDAC8; conditions: recombinant human HDAC enzyme in vitro; read-out: IC50 (μM) HD8
T4 construct: HDAC6 and 8 were cloned as full length N-terminally His-tagged protein; His tag (N); made in house; host or cells: Sf-9 insect cells (baculovirus)
T4 sequence (Q9BY41 1-377): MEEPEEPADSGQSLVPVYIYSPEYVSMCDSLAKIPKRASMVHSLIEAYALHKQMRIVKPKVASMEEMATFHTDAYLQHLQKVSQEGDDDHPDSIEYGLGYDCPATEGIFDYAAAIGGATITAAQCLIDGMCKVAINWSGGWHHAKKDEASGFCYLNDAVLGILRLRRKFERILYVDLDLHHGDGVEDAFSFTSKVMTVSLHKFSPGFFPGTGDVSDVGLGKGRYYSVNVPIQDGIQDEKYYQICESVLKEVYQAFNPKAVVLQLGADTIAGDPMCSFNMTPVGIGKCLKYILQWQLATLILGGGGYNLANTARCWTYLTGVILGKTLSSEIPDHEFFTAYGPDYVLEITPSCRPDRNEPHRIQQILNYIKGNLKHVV
Excerpt: as §1, §2

[1] = tested on: recombinant human HDAC enzymes; assay: HDAC isotype selectivity across recombinant HDAC enzymes; conditions: from Table 1
Excerpt: as §1, with “HDAC2, 3 and 11 were purified using Flag-antibody immunoaffinity purification.” left out
as §2, with “Boc-Lys(Ac)-AMC” for “Recombinant HDAC enzymes were incubated with diluted compounds in assay buffer (25 mM Hepes, pH 8.0, 137 mM NaCl, 1 mM MgCl2 and 2.7 mM KCl) for 10 minutes at ambient temperatures in black 96-well plate. Boc-Lys(Ac)-AMC”, “Calif.).” for “Calif.). The 50% inhibitory concentrations (IC50) for inhibitors were determined by analyzing dose-response inhibition curves.”

T2 sequence (P56524 655-1084 limits assumed): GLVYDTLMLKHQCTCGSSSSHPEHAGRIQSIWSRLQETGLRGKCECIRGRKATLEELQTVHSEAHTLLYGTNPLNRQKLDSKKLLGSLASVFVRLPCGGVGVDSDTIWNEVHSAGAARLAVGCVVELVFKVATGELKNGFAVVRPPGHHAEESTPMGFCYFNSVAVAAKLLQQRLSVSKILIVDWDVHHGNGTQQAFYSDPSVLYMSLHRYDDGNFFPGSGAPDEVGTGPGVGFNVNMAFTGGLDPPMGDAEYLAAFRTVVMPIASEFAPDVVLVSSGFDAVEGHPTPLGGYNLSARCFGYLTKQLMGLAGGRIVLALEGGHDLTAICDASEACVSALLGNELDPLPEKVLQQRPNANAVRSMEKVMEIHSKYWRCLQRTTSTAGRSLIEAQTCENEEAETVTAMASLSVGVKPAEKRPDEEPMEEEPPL
T3 sequence (Q92769 whole entry): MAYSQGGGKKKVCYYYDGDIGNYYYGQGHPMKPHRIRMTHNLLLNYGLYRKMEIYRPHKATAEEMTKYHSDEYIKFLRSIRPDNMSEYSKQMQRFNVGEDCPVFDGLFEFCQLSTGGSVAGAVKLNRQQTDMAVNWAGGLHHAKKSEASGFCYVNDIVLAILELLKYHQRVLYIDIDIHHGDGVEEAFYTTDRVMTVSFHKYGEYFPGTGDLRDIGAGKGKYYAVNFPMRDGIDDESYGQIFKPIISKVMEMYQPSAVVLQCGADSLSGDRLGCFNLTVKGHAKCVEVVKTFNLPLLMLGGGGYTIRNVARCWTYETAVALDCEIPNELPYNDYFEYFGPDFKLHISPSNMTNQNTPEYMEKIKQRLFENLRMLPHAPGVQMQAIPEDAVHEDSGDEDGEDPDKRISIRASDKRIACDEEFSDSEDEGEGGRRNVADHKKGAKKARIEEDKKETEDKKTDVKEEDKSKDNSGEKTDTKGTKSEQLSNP
T1 sequence (Q9UQL6 684-1028 limits assumed): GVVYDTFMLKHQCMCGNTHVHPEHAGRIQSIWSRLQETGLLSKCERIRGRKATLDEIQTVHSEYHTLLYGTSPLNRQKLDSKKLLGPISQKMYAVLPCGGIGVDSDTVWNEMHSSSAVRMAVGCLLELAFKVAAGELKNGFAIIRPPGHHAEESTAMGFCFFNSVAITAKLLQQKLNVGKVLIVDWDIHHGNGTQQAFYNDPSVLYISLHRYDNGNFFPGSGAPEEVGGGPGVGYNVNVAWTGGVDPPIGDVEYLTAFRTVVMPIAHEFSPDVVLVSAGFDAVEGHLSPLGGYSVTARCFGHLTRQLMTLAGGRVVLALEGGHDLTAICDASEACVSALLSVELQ

| SMILES | IC50 (HDAC5) [µM] | IC50 (HDAC4) [µM] | IC50 (HDAC2) [µM] | IC50 (HDAC8) [µM] | HDAC isotype selectivity [1] |
| --- | --- | --- | --- | --- | --- |
| Nc1ccccc1NC(=O)c1ccc(CNc2nccc(-c3cccnc3)n2)cc1 [Compound A] | > 10 |  |  |  |  |
| Nc1ccccc1NC(=O)c1ccc(N2CC[C@H](Nc3cccnc3)C2)cc1 [Compound B] | > 10 | > 10 | 0.5 | 1.63 | selective inhibitors of HDAC1, 2 and 3 |
| Nc1ccc(-c2ccccc2)cc1NC(=O)c1ccc(N2CC[C@H](N)C2)cc1 [Compound D] | > 10 | > 10 | 0.09 | > 10 | selective for HDAC1 and HDAC 2 |
| Nc1ccc(-c2ccccc2)cc1NC(=O)c1ccc(N2CCC(N)CC2)cc1 [Compound E] | > 10 | > 10 | 0.08 | > 10 | selective for HDAC1 and HDAC 2 |
| CN1CCN(c2ccc(C(=O)Nc3cc(-c4ccccn4)ccc3N)cc2)CC1 [Compound F] | > 10 | > 10 | 0.1 | > 10 | selective for HDAC1 and HDAC 2 |
| CN1CCN(c2ccc(C(=O)Nc3cc(-c4ccncc4)ccc3N)cc2)CC1 [Compound G] | > 10 | > 10 | 0.1 | > 10 | selective for HDAC1 and HDAC 2 |
| CC(C)N1CCN(c2ccc(C(=O)Nc3cc(-c4ccncc4)ccc3N)cc2)CC1 [Compound H] | > 10 | > 10 | 0.09 | > 10 | selective for HDAC1 and HDAC 2 |
